Test results: patent US11878967B2, “Crystalline forms of 1-(4-{[6-amino-5-(4-phenoxy-phenyl)-pyrimidin-4-ylamino]-methyl}-4-fluoro-piperidin-1-yl)-propenone, salt forms thereof, and processes to obtain” (Merck Patent GmbH, priority 2018, dated 2024)
Values after ≈ are worked out from the molar mass of the structure shown. Where a name gives a salt, the structure may show the parent alone. Read-outs that look alike come from different tables or passages of the source.

How the values were obtained:
Assay type in all cases: physicochemical
[1] = Water Vapour Sorption isotherm (25° C.), DVS system from SMS
Protocol: DSC scan of form A1 was acquired on a Mettler-Toledo DSC 1 with a heating rate of 5 K/min, using nitrogen purge gas at 50 mL/min. TGA scan of form A1 was acquired on a Mettler-Toledo TGA 851 with a heating rate of 5 K/min, using nitrogen purge gas at 50 mL/min. […] Eur. Criteria (section 5.11.). Water Vapour Sorption isotherm was acquired on a DVS-Intrinsic system from SMS. […] Dissolution level of form A1 in Fasted-State Simulated Intestinal Fluid [FaSSIF, pH 6.5] at 37° C. was determined to be approx. 17 μg/mL after 2 h (see example 7). […]
All forms were characterized according to standard methods which are found in e.g. Rolf Hilfiker, ‘Polymorphism in the Pharmaceutical Industry’, Wiley-VCH. Weinheim 2006 (Chapter 6: X-Ray Diffraction, Chapter 6: Vibrational Spectroscopy, Chapter 3: Thermal Analysis, Chapter 9: Water Vapour Sorption, and references therein); and H. G. Brittain, ‘Polymorphism in Pharmaceutical Solids, Vol. 95, Marcel Dekker Inc., New York 1999 (Chapter 6 and references therein).

[2] = Mini-dissolution in FaSSIF medium pH 6.5 at 37° C.; details: for Dissolution levels in FaSSIF pH 6.5: 37° C.; for Dissolution level (2 h) in FaSSIF, factor higher than A1: compared to crystalline neat form A1
Protocol: Approximately 10-20 mg of 1-(4-{[6-Amino-5-(4-phenoxy-phenyl)-pyrimidin-4-ylamino]-methyl}-4-fluoro-piperidin-1-yl)-propenone were weighed into glass vials. 7 mL of FaSSIF medium (pH 6.5, prewarmed to 37° C.) were added and the suspension was shaken at 450 rpm at 37° C. After 30 min, 60 min and 120 min, 1 mL suspension was withdrawn and filtered through a 0.2 μm syringe filter. Clear filtrate was analysed by HPLC after suitable dilution to measure the amount of API dissolved.

[3] = Thermodynamic solubility (24 h) at 37° C. of free base forms; details: for solubility thermodynamic at 24 h: 37 °C, thermodynamic from solid
Protocol: Approximately 10-20 mg of 1-(4-{[6-Amino-5-(4-phenoxy-phenyl)-pyrimidin-4-ylamino]-methyl}-4-fluoro-piperidin-1-yl)-propenone were weighed into a 4 mL glass vial. 1 mL of FaSSIF medium (pH 6.5) or USP Phosphate buffer pH 7.4 was added and the suspension was shaken for 24 h at 450 rpm at 37° C. After 1 h, 6 h and after 24 h the vials were checked for presence of undissolved compound and the pH was measured. If necessary, the pH was adjusted after 1 h and 6 h. The solid liquid separation was carried out using 1 mL syringe and 0.2 μm syringe filter. Clear filtrate was analysed by HPLC after suitable dilution to measure the amount of API dissolved.

[4] = relative humidity range 0-80% rh
[5] = relative humidity range 90-98% rh

SMILES	Hygroscopicity classification acc. to Ph. Eur. criteria (section 5.11.) [1]	Water uptake levels [1, 4] [% m/m]	Water uptake levels [1, 5] [% m/m]	Dissolution levels in FaSSIF pH 6.5 ([2]; 30 min) [μg/mL]	Dissolution levels in FaSSIF pH 6.5 ([2]; 60 min) [μg/mL]	other results
C=CC(=O)N1CCC(F)(CNc2ncnc(N)c2-c2ccc(Oc3ccccc3)cc2)CC1 [Free base form A1, 1-(4-{[6-Amino-5-(4-phenoxy-phenyl)-pyrimidin-4-ylamino]-methyl}-4-fluoro-piperidin-1-yl)-propenone]	slightly hygroscopic	≤ 1	≤ 2	16	17	Dissolution levels in FaSSIF pH 6.5 ([2]; 120 min (2 h)): 17 μg/mL; Dissolution levels in FaSSIF pH 6.5 ([2]; 120 min (2 h), listed as form A1): approx. 17 μg/mL; solubility thermodynamic at 24 h ([3]; FaSSIF (Fasted-State Simulated Intestinal Fluid), pH 6.5, fassif, Fasted-State Simulated Intestinal Fluid pH 6.5, read-out: Thermodynamic solubility FaSSIF pH 6.5): ~17 µg/mL (≈ 38 µM); solubility thermodynamic at 24 h ([3]; USP Phosphate buffer, pH 7.4, aqueous buffer, USP Phosphate buffer pH 7.4, read-out: Thermodynamic solubility PBS buffer 7.4): ~1 µg/mL (≈ 2.23 µM)
C=CC(=O)N1CCC(F)(CNc2ncnc(N)c2-c2ccc(Oc3ccccc3)cc2)CC1 [Free base form A2, 1-(4-{[6-Amino-5-(4-phenoxy-phenyl)-pyrimidin-4-ylamino]-methyl}-4-fluoro-piperidin-1-yl)-propenone]	slightly hygroscopic	≤ 1	≤ 2	7	8	Dissolution levels in FaSSIF pH 6.5 ([2]; 120 min (2 h)): 8 μg/mL; Dissolution levels in FaSSIF pH 6.5 ([2]; 120 min (2 h), listed as form A2): approx. 8 μg/mL; Thermodynamic solubility FaSSIF pH 6.5 ([3]; Fasted-State Simulated Intestinal Fluid pH 6.5): 10 μg/mL; Thermodynamic solubility FaSSIF pH 6.5 ([3]; Fasted-State Simulated Intestinal Fluid pH 6.5, listed as form A2): approx. 10 μg/mL; Thermodynamic solubility PBS buffer 7.4 ([3]; USP Phosphate buffer pH 7.4): 2 µg/mL; Thermodynamic solubility PBS buffer 7.4 ([3]; USP Phosphate buffer pH 7.4, listed as form A2): approx. 2 μg/mL
C=CC(=O)N1CCC(F)(CNc2ncnc(N)c2-c2ccc(Oc3ccccc3)cc2)CC1 [Fumarate-NF1, 1-(4-{[6-Amino-5-(4-phenoxy-phenyl)-pyrimidin-4-ylamino]-methyl}-4-fluoro-piperidin-1-yl)-propenone]	slightly hygroscopic	≤ 1	≥ 5	14	18	Dissolution level (2 h) in FaSSIF, factor higher than A1 ([2]; listed as Fumarate salt form NF1): ~2
C=CC(=O)N1CCC(F)(CNc2ncnc(N)c2-c2ccc(Oc3ccccc3)cc2)CC1 [HBr-NF1, 1-(4-{[6-Amino-5-(4-phenoxy-phenyl)-pyrimidin-4-ylamino]-methyl}-4-fluoro-piperidin-1-yl)-propenone]	slightly hygroscopic	≤ 1	≤ 5	23	27	Dissolution level (2 h) in FaSSIF, factor higher than A1 [2]: ~3

Second part, led by results:

Hygroscopicity classification acc. to Ph. Eur. criteria (section 5.11.) [1]	Water uptake levels [1, 4] [% m/m]	Water uptake levels [1, 5] [% m/m]	Dissolution levels in FaSSIF pH 6.5 ([2]; 30 min) [μg/mL]	Dissolution levels in FaSSIF pH 6.5 ([2]; 60 min) [μg/mL]	SMILES	other results
slightly hygroscopic	≤ 1	≥ 5	–	–	C=CC(=O)N1CCC(F)(CNc2ncnc(N)c2-c2ccc(Oc3ccccc3)cc2)CC1 [HBr-NF2, 1-(4-{[6-Amino-5-(4-phenoxy-phenyl)-pyrimidin-4-ylamino]-methyl}-4-fluoro-piperidin-1-yl)-propenone]	–
slightly hygroscopic	≤ 1	≤ 5	55	43	C=CC(=O)N1CCC(F)(CNc2ncnc(N)c2-c2ccc(Oc3ccccc3)cc2)CC1 [HCl-NF1, 1-(4-{[6-Amino-5-(4-phenoxy-phenyl)-pyrimidin-4-ylamino]-methyl}-4-fluoro-piperidin-1-yl)-propenone]	Dissolution level (2 h) in FaSSIF, factor higher than A1 [2]: ~4
slightly hygroscopic	≤ 1	≤ 5	–	–	C=CC(=O)N1CCC(F)(CNc2ncnc(N)c2-c2ccc(Oc3ccccc3)cc2)CC1 [Maleate-NF1, 1-(4-{[6-Amino-5-(4-phenoxy-phenyl)-pyrimidin-4-ylamino]-methyl}-4-fluoro-piperidin-1-yl)-propenone]	–
slightly hygroscopic	≤ 1	≤ 5	–	–	C=CC(=O)N1CCC(F)(CNc2ncnc(N)c2-c2ccc(Oc3ccccc3)cc2)CC1 [Mesylate-NF1, 1-(4-{[6-Amino-5-(4-phenoxy-phenyl)-pyrimidin-4-ylamino]-methyl}-4-fluoro-piperidin-1-yl)-propenone]	–
slightly hygroscopic	≤ 1	≤ 5	22	39	C=CC(=O)N1CCC(F)(CNc2ncnc(N)c2-c2ccc(Oc3ccccc3)cc2)CC1 [Oxalate-NF1, 1-(4-{[6-Amino-5-(4-phenoxy-phenyl)-pyrimidin-4-ylamino]-methyl}-4-fluoro-piperidin-1-yl)-propenone]	Dissolution level (2 h) in FaSSIF, factor higher than A1 ([2]; listed as Oxalate salt form NF1): ~4
